From patent US8729110B1, “2-thio-1,3,4-oxadiazoles derivatives as sphingosine-1 phosphate receptors modulators” (Allergan, Inc., priority 2012, dated 2014)

Each molecule was assayed against T1, human S1P1 receptor (Homo sapiens, UniProt P21453) (assay: GTP γ35S binding assay for S1P1 activity). Conditions: activity potency, S1P1 receptor from GTP γ35S binding; 5 μg membrane protein; test compounds 0.08 to 5,000 nM; 30 min at 25° C.
T1 construct: expressed in transfected cells; membranes used
Assay type: biochemical
Description: Compounds were synthesized and tested for S1P1 activity using the GTP γ^35S binding assay. These compounds may be assessed for their ability to activate or block activation of the human S1P1 receptor in cells stably expressing the S1P1 receptor.
GTP γ^35S binding was measured in the medium containing (mM) HEPES 25, pH 7.4, MgCl2 10, NaCl 100, dithitothreitol 0.5, digitonin 0.003%, 0.2 nM GTP γ^35S, and 5 μg membrane protein in a volume of 150 μl. Test compounds were included in the concentration range from 0.08 to 5,000 nM unless indicated otherwise. Membranes were incubated with 100 μM 5′-adenylylimmidodiphosphate for 30 min, and subsequently with 10 μM GDP for 10 min on ice. Drug solutions and membrane were mixed, and then reactions were initiated by adding GTP γ^35S and continued for 30 min at 25° C. Reaction mixtures were filtered over Whatman GF/B filters under vacuum, and washed three times with 3 mL of ice-cold buffer (HEPES 25, pH7.4, MgCl2 10 and NaCl 100). Filters were dried and mixed with scintillant, and counted for ^35S activity using a β-counter. Agonist-induced GTP γ^35S binding was obtained by subtracting that in the absence of agonist. Binding data were analyzed using a non-linear regression method. In case of antagonist assay, the reaction mixture contained 10 nM […] in the presence of test antagonist at concentrations ranging from 0.08 to 5000 nM.

T1 sequence (P21453 whole entry): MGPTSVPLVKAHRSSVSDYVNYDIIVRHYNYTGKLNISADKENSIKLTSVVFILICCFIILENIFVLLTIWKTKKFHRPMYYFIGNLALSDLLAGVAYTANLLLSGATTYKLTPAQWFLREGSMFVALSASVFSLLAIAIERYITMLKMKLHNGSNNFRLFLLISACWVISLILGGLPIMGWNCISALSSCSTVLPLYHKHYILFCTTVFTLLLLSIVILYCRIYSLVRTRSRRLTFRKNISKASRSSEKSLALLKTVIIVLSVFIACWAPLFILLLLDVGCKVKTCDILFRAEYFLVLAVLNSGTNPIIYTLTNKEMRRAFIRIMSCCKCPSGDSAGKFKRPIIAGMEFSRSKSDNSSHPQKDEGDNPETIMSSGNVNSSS

| EC50 [nM] | SMILES |
| --- | --- |
| 888 | Cc1ccc(-c2nnc(SC(C)c3ccc(CNCCCP(=O)(O)O)cc3)o2)cc1C (centres unmarked) [(3-{[4-(1-{[5-(3,4-dimethylphenyl)-1,3,4-oxadiazol-2-yl]thio}ethyl)benzyl]amino}propyl)phosphonic acid] |
| 805 | Cc1ccc(-c2nnc(SCc3ccc(CNCCCP(=O)(O)O)cc3)o2)cc1C [(3-{[4-({[5-(3,4-dimethylphenyl)-1,3,4-oxadiazol-2-yl]thio}methyl)benzyl]amino}propyl)phosphonic acid] |
| 853 | O=P(O)(O)CCCNCc1ccc(-c2nnc(SCc3cccc(Cl)c3F)o2)cc1 [Compound 1, {3-[(4-{5-[(3-chloro-2-fluorobenzyl)thio]-1,3,4-oxadiazol-2-yl}benzyl)amino]propyl}phosphonic acid] |
| 231 | Cc1cc(CNCCCP(=O)(O)O)ccc1-c1nnc(SC(C)c2cccc([N+](=O)[O-])c2)o1 (centres unmarked) [Compound 6, (3-{[3-methyl-4-(5-{[1-(3-nitrophenyl)ethyl]thio}-1,3,4-oxadiazol-2-yl)benzyl]amino}propyl)phosphonic acid] |
| 50 | CCC(Sc1nnc(-c2ccc(CNCCCP(=O)(O)O)cc2C)o1)c1cccc([N+](=O)[O-])c1 (centres unmarked) [Compound 7, (3-{[3-methyl-4-(5-{[1-(3-nitrophenyl)propyl]thio}-1,3,4-oxadiazol-2-yl)benzyl]amino}propyl)phosphonic acid] |
| 1810 | O=[N+]([O-])c1cccc(CSc2nnc(-c3ccc(CNCCCP(=O)(O)O)cc3)o2)c1 [Compound 9, {3-[(4-{5-[(3-nitrobenzyl)thio]-1,3,4-oxadiazol-2-yl}benzyl)amino]propyl}phosphonic acid] |
| 97 | Cc1ccc(CSc2nnc(-c3ccc(CNCCCP(=O)(O)O)cc3)o2)cc1C [Compound 10, {3-[(4-{5-[(3,4-dimethylbenzyl)thio]-1,3,4-oxadiazol-2-yl}benzyl)amino]propyl}phosphonic acid] |
| 30 | CCc1cc(CNCCCP(=O)(O)O)ccc1-c1nnc(SC(C)c2cccc([N+](=O)[O-])c2)o1 (centres unmarked) [Compound 11, (3-{[3-ethyl-4-(5-{[1-(3-nitrophenyl)ethyl]thio}-1,3,4-oxadiazol-2-yl)benzyl]amino}propyl)phosphonic acid] |
| 1.5 | CCCC(Sc1nnc(-c2ccc(CNCCCP(=O)(O)O)cc2)o1)c1ccccc1 (centres unmarked) [Compound 14, {3-[(4-{5-[(1-phenylbutyl)thio]-1,3,4-oxadiazol-2-yl}benzyl)amino]propyl}phosphonic acid] |
| 1.8 | CCCC(Sc1nnc(-c2ccc(CNCCCP(=O)(O)O)cc2)o1)c1cccc(Cl)c1F (centres unmarked) [Compound 15, (3-{[4-(5-{[1-(3-chloro-2-fluorophenyl)butyl]thio}-1,3,4-oxadiazol-2-yl)benzyl]amino}propyl)phosphonic acid] |
| 40 | CCC(Sc1nnc(-c2ccc(CNCCCP(=O)(O)O)cc2)o1)c1cccc([N+](=O)[O-])c1 (centres unmarked) [Compound 16, (3-{[4-(5-{[1-(3-nitrophenyl)propyl]thio}-1,3,4-oxadiazol-2-yl)benzyl]amino}propyl)phosphonic acid] |
| 382 | CC(Sc1nnc(-c2ccc(CNCCCP(=O)(O)O)cc2)o1)c1cccc([N+](=O)[O-])c1 (centres unmarked) [Compound 17, (3-{[4-(5-{[1-(3-nitrophenyl)ethyl]thio}-1,3,4-oxadiazol-2-yl)benzyl]amino}propyl)phosphonic acid] |
| 1260 | CCc1cc(CNCCCP(=O)(O)O)sc1-c1nnc(SC(C)c2cccc([N+](=O)[O-])c2)o1 (centres unmarked) [Compound 26, [3-({[4-ethyl-5-(5-{[1-(3-nitrophenyl)ethyl]sulfanyl}-1,3,4-oxadiazol-2-yl)thiophen-2-yl]methyl}amino)propyl]phosphonic acid] |
| 200 | Cc1cc(CNCCCP(=O)(O)O)sc1-c1nnc(SC(C)c2cccc([N+](=O)[O-])c2)o1 (centres unmarked) [Compound 27, [3-({[4-methyl-5-(5-{[1-(3-nitrophenyl)ethyl]sulfanyl}-1,3,4-oxadiazol-2-yl)thiophen-2-yl]methyl}amino)propyl]phosphonic acid] |
